Data as given in PubChem BioAssay (NCI).
Values joined by “and” are separate entries in the source; they are usually repeats but may differ in a detail not shown here. Identical values can stand only once.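 Exposure lasted 48 hours, with cells grown in 96-well plates and compounds tested at five concentrations. GI50 = concentration required for 50% inhibition of growth. TGI marks complete inhibition of growth.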

Experiments:
Assay in all cases: NCI-60 cell line screen, 48 h
BT-549 breast = system: BT-549 breast
LOX IMVI melanoma = system: LOX IMVI melanoma
NCI-H522 lung = system: NCI-H522 lung
M14 melanoma = system: M14 melanoma
T-47D breast = system: T-47D breast
DU-145 prostate = system: DU-145 prostate
SW-620 colon = system: SW-620 colon
A549 NSCLC = system: A549 NSCLC
HCT-15 colon = system: HCT-15 colon
HS 578T breast = system: HS 578T breast

SMILES	TGI (BT-549 breast)	TGI (LOX IMVI melanoma)	TGI (NCI-H522 lung)	TGI (M14 melanoma)	TGI (T-47D breast)	TGI (DU-145 prostate)	TGI (SW-620 colon)	TGI (A549 NSCLC)	TGI (HCT-15 colon)	TGI (HS 578T breast)	GI50 (BT-549 breast)	GI50 (LOX IMVI melanoma)	GI50 (NCI-H522 lung)	GI50 (M14 melanoma)	GI50 (T-47D breast)	GI50 (DU-145 prostate)	GI50 (SW-620 colon)	GI50 (A549 NSCLC)	GI50 (HCT-15 colon)	GI50 (HS 578T breast)
CCC(c1ccccc1)c1cc(C(C)(C)C)cc(C(C)(C)C)c1O (centres undefined)	33.4 µM	31.9 µM	27.2 µM	33.9 µM	29.6 µM	33.2 µM	30.5 µM	29.8 µM	30.5 µM	32.3 µM	–	–	–	–	–	–	–	–	–	–
C=CCSC(C)=O	> 100 µM	> 100 µM	> 100 µM	> 100 µM	> 100 µM	> 100 µM	> 100 µM	> 100 µM	> 100 µM	> 100 µM	–	–	–	–	–	–	–	–	–	–
COc1ccc(-c2c(-c3ccc(C#N)c(F)c3)nc(N3CCC(N)CC3)n(C)c2=O)cc1F	30.6 µM	26 µM	30.7 µM	34.9 µM	46.3 µM	> 100 µM	96.2 µM	> 100 µM	99.2 µM	44.6 µM	14600 nM	13100 nM	13600 nM	17500 nM	14000 nM	25500 nM	24200 nM	29800 nM	21600 nM	13200 nM
CCOCCOCCOCCOCCOCCOCCOCCOCCOCCO (tested in a mixture with another compound)	4.75 µM	2.9 µM	–	7.08 µM	7.16 µM	15.2 µM	8.17 µM	8.66 µM	–	9.59 µM	1290 nM	810 nM	–	2020 nM	1120 nM	2600 nM	1560 nM	1210 nM	–	1810 nM
CCS(=O)(=O)c1ccc(OC)c(Nc2ncc(-c3cccc(F)c3)o2)c1	> 25 µM	> 25 µM	> 25 µM	> 25 µM	> 25 µM	> 25 µM	> 25 µM	> 25 µM	> 25 µM	> 22.3 µM	> 25000 nM	> 25000 nM	> 25000 nM	> 25000 nM	> 25000 nM	> 25000 nM	> 25000 nM	> 25000 nM	> 25000 nM	2500 nM
COc1ccc2c(c1)C(=O)c1c-2n(CCCN(C)C)c(=O)c2cc([N+](=O)[O-])ccc12	0.621 µM	0.108 µM	0.898 µM	0.0428 µM	21.6 µM	0.0319 µM	1.34 µM	–	1.29 µM	21.3 µM	15.9 nM	< 10 nM	< 10 nM	< 10 nM	< 10 nM	< 10 nM	< 10 nM	–	23.9 nM	3040 nM
COc1cc(C2NC(=O)C(C#N)=C(Nc3cccc(C)c3)S2)ccc1O (centres undefined)	> 100 µM	> 100 µM	> 100 µM	> 100 µM	> 100 µM	> 100 µM	> 100 µM	> 100 µM	> 100 µM	> 100 µM	> 100000 nM	> 100000 nM	> 100000 nM	> 100000 nM	> 100000 nM	> 100000 nM	> 100000 nM	> 100000 nM	> 100000 nM	> 100000 nM
O=C1Cc2cc(CCN3CCNCC3)c(Cl)cc2N1	> 100 µM	> 100 µM	> 100 µM	26.5 µM	> 100 µM	> 100 µM	> 100 µM	> 100 µM	> 100 µM	> 100 µM	8180 nM	> 100000 nM	4860 nM	3020 nM	29100 nM	19900 nM	4980 nM	6850 nM	6230 nM	1570 nM
CSc1nc(SC)c2c(C)cn(COCCOC(=O)c3ccccc3)c2n1	> 100 µM	> 100 µM	> 100 µM	> 100 µM	94.5 µM	> 100 µM	> 100 µM	> 100 µM	> 100 µM	> 100 µM	–	–	–	–	–	–	–	–	–	–
CCc1c(C)c2cc(-n3c(-c4ccc(OC)cc4)csc3=N)c(O)c(C)c2oc1=O	5.02 µM	–	2.46 µM	6.59 µM	4.24 µM	12.3 µM	3.28 µM	12.3 µM	3.95 µM	> 100 µM	1000 nM	–	646 nM	1410 nM	551 nM	3000 nM	1320 nM	2700 nM	1210 nM	2100 nM
CNc1cc(-c2cccc(OC(F)(F)F)c2)nc2ccc(N3CCCC3)cc12	6.17 µM and 3.65 µM and 3.33 µM	3.24 µM and 3.28 µM and 3.23 µM	3.33 µM and 3.25 µM and 3.43 µM	3.04 µM and 3.24 µM and 3.14 µM	3.51 µM and 3.47 µM	3.12 µM and 3.5 µM and 3.4 µM	3.08 µM and 3.79 µM and 3.6 µM	3.26 µM and 3.03 µM and 3.27 µM	2.35 µM and 2.54 µM and 2.8 µM	3.95 µM	2140 nM and 1940 nM and 1790 nM	1710 nM and 1740 nM	1680 nM and 1650 nM and 1760 nM	1640 nM and 1720 nM and 1690 nM	1590 nM and 1760 nM	1610 nM and 1840 nM and 1880 nM	1560 nM and 1840 nM and 1750 nM	1790 nM and 1660 nM and 1750 nM	860 nM and 1160 nM and 1300 nM	1870 nM
Fc1ccc(Nc2nc(Nc3ccc(-c4nc5ccccc5[nH]4)cc3)c3cn[nH]c3n2)cc1	6.4 µM	3.62 µM	4.02 µM	3.95 µM	5 µM	3.75 µM	4.24 µM	6.78 µM	4.78 µM	5.35 µM	2360 nM	1790 nM	1610 nM	2010 nM	1900 nM	1870 nM	2030 nM	2750 nM	1760 nM	2120 nM
COc1ccc(C(O)c2ccccn2)cc1 (centres undefined)	> 100 µM	> 100 µM	> 100 µM	> 100 µM	> 100 µM	> 100 µM	> 100 µM	> 100 µM	> 100 µM	> 100 µM	–	–	–	–	–	–	–	–	–	–
CC1(C)C(=O)/C=C\C(=O)C(C)(C)C(=O)/C=C\C(=O)C(C)(C)C2=CC=C(O2)C(C)(C)C(=O)/C=C\C1=O	24.2 µM	13 µM	2.22 µM	5.63 µM	18.5 µM	32.1 µM	3.59 µM	49.7 µM	7.69 µM	50 µM	–	–	–	–	–	–	–	–	–	–
CSc1ccc(C(=O)/C=C/c2ccc(Cl)cc2Cl)cc1	33.1 µM	37 µM	37.2 µM	59.6 µM	–	89.2 µM	56 µM	40.5 µM	97.7 µM	68.4 µM	15700 nM	20000 nM	14400 nM	21600 nM	–	25700 nM	22200 nM	17700 nM	29800 nM	28600 nM
COc1ccc(-c2[nH]ncc2Nc2cc(OC)c(OC)c(OC)c2)cc1	> 89.6 µM	> 100 µM	49.3 µM	> 100 µM	> 100 µM	64.1 µM	> 100 µM	> 100 µM	> 100 µM	4.65 µM	9990 nM	6130 nM	1980 nM	906 nM	4070 nM	4000 nM	558 nM	3390 nM	702 nM	1300 nM
COc1cc(C(=O)n2nc(N)c3c(C)cc(C)nc32)cc(OC)c1OC	> 100 µM	> 100 µM	> 100 µM	> 100 µM	> 100 µM	> 100 µM	> 100 µM	> 100 µM	> 100 µM	> 100 µM	> 100000 nM	> 100000 nM	10800 nM	> 73700 nM	> 65400 nM	> 100000 nM	2480 nM	41500 nM	1380 nM	> 100000 nM
CSc1nc2c(c(=O)n1C)C(c1ccccc1)C1=C(N2)/C(=C/c2ccccc2)CCC1 (centres undefined)	> 100 µM	12.8 µM	> 100 µM	> 100 µM	> 100 µM	> 100 µM	6.81 µM	> 100 µM	> 100 µM	93.8 µM	11900 nM	3010 nM	5930 nM	6560 nM	4150 nM	8020 nM	2530 nM	> 100000 nM	4100 nM	10200 nM
CNC(=O)c1cc(Oc2ccc(NC(=O)Nc3cc(C(C)(C)C)nn3-c3ccc4ncccc4c3)c(F)c2)ccn1	4.58 µM and 5.65 µM	2.08 µM	4.91 µM and 5.31 µM	2.49 µM and 2 µM	7.17 µM and > 29.3 µM	6.23 µM and 5.62 µM	> 29.6 µM	7.72 µM and 6.5 µM	7.3 µM and 8.53 µM	5.42 µM and 5.03 µM	1080 nM and 2270 nM	405 nM	1780 nM and 2200 nM	370 nM and 395 nM	907 nM and 1790 nM	2100 nM and 1800 nM	3510 nM and 3160 nM	1830 nM and 1800 nM	2010 nM and 2350 nM	1140 nM and 1030 nM
S=C(SSC(=S)N1CCCCC1)N1CCCCC1	44.6 µM	18.1 µM	30.1 µM	22.9 µM	–	> 100 µM	26.9 µM	> 100 µM	66.8 µM	> 100 µM	16600 nM	5640 nM	12200 nM	8340 nM	–	15500 nM	13400 nM	24100 nM	16500 nM	21000 nM
O=C1/C(=C/c2ccc([N+](=O)[O-])o2)Oc2ccc(Cl)cc21	3.32 µM	3.19 µM	2.79 µM	4.93 µM	5.02 µM	4.88 µM	1.99 µM	59.1 µM	2.05 µM	> 27.6 µM	1670 nM	1590 nM	1310 nM	2010 nM	1670 nM	2250 nM	541 nM	6450 nM	537 nM	2950 nM
Cc1cc(N(CCNc2ccnc3cc(Cl)ccc23)Cc2ccc3c(c2)OCO3)nc(N2CCCC2)n1	4.27 µM	3.16 µM	3.79 µM	3.71 µM	5.44 µM	–	2.94 µM	4.96 µM	3.18 µM	5.02 µM	1820 nM	1600 nM	1740 nM	1830 nM	1930 nM	–	1190 nM	1670 nM	1220 nM	1720 nM
CC1=C[C@@H]2c3c(c(O)c(O)c4oc5cc(O)cc(O)c5c(=O)c34)[C@@H](c3cc(O)c(O)c4oc5cc(O)cc(O)c5c(=O)c34)[C@@H]2C(C)(C)C1	19.8 µM	4.26 µM	12.1 µM	12.8 µM	19.2 µM	16.6 µM	14.2 µM	17.6 µM	12.8 µM	21 µM	3680 nM	1530 nM	2900 nM	2370 nM	4600 nM	5530 nM	3480 nM	4120 nM	3160 nM	3420 nM
COc1ccc2c(c1)-c1c(c3cc(OC)ccc3n(CCN(C)C)c1=O)C2=O	12.9 µM	1.85 µM	0.59 µM	10.2 µM	11.4 µM	3.54 µM	2.95 µM	2.97 µM	13.1 µM	7.81 µM	5840 nM	658 nM	84.3 nM	1800 nM	3230 nM	565 nM	208 nM	388 nM	629 nM	1700 nM
COC(=O)CC1=C(C)/C(=C/c2[nH]c(-c3ccc[nH]3)cc2OC)N=C1C	4.29 µM	0.159 µM	1.27 µM	0.863 µM	1.52 µM	12.8 µM	1.36 µM	3.69 µM	0.894 µM	2.14 µM	196 nM	42 nM	215 nM	272 nM	255 nM	315 nM	148 nM	248 nM	99.2 nM	423 nM
C=C(C)C(=O)Nc1ccc(-c2c(-c3ccc(Oc4nccc(C)n4)c(F)c3)c3c(N)ncnc3n2C)cc1	15.8 µM	12.8 µM	16.1 µM	20 µM	35.5 µM	15.3 µM	25.9 µM	18.5 µM	13.5 µM	4.1 µM	2080 nM	2610 nM	3570 nM	5640 nM	2970 nM	3860 nM	8700 nM	3600 nM	3110 nM	1090 nM
COc1ccc2nc3ccccc3c(NCCNCC(C)O)c2c1 (centres undefined)	5.73 µM	0.483 µM	2.09 µM	1.79 µM	6.27 µM	14.7 µM	12.5 µM	–	10.6 µM	12.2 µM	1610 nM	202 nM	427 nM	356 nM	465 nM	516 nM	300 nM	–	461 nM	1100 nM
